# Values of other authors as cited in patent US20240299384A1, “METHODS FOR TREATING PULMONARY HYPERTENSION IN PATIENTS WITH LEFT VENTRICULAR ASSIST DEVICE IMPLANTATION” (ACTELION PHARMACEUTICALS LTD, priority 2021, published 2024).
# Key:
# [1] = cited from earlier work
# ET receptors = conditions: cited from earlier work
smiles,measurement,setting,value
NS(=O)(=O)Nc1ncnc(OCCOc2ncc(Br)cn2)c1-c1ccc(Br)cc1 [ACT-132577],time to peak plasma concentration,[1]; after the first dose of macitentan,about 30 hours
same,half-life,[1]; humans,approximately 48 hours
same,plasma concentrations relative to macitentan,[1]; humans,higher plasma concentrations
same,affinity for the ET receptors relative to parent compound,ET receptors,lower affinity
